Test results reported in the supplement of paper PMC11061612.

How the values were obtained:
AZD5991 = compound: Cc1c2c(nn1C)CSCc1cc(n(C)n1)CSc1cc(c3ccccc3c1)OCCCc1c(C(=O)O)n(C)c3c-2c(Cl)ccc13 [AZD5991]; conditions: max 1 µM
Outline: (§1)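 Cancer cell lines were plated in 1536-well plates in 7.5 μl of DMEM/F12 or RPMI with 10% FBS and kept 24 hours at 37°C and 5% CO2 before 72 hours of dosing, with final DMSO typically 0.2%. CellTiter-Glo 2.0 luminescence measured viability, scaled between blank-well and DMSO-well means. Dose responses were fitted to a two-parameter logistic curve with a non-linear mixed effects model. This fit gives the single-agent IC50.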

Alisertib = compound: COc1cc(Nc2ncc3c(n2)-c2ccc(Cl)cc2C(c2c(F)cccc2OC)=NC3)ccc1C(=O)O [Alisertib]; conditions: max 10 µM
Outline: as §1

Taselisib = compound: Cc1nc(-c2cn3c(n2)-c2ccc(-c4cnn(C(C)(C)C(N)=O)c4)cc2OCC3)n(C(C)C)n1 [Taselisib]; conditions: max 10 µM
Outline: as §1

AZD1390 = compound: CC(C)n1c(=O)n(C)c2cnc3cc(F)c(-c4ccc(OCCCN5CCCCC5)nc4)cc3c21 [AZD1390]; conditions: max 0.3 µM
Outline: as §1

Prexasertib = compound: COc1cccc(OCCCN)c1-c1cc(Nc2cnc(C#N)cn2)n[nH]1 [Prexasertib]; conditions: max 1 µM
Outline: as §1

AZD8186 = compound: C[C@@H](Nc1cc(F)cc(F)c1)c1cc(C(=O)N(C)C)cc2c(=O)cc(N3CCOCC3)oc12 [AZD8186]; conditions: max 10 µM
Outline: as §1

Carboplatin = compound: C1CC(C1)(C(=O)[O-])C(=O)[O-].N.N.[Pt+2] [Carboplatin]; conditions: max 10 µM
Outline: as §1

Venetoclax = compound: CC1(C)CCC(CN2CCN(c3ccc(C(=O)NS(=O)(=O)c4ccc(NCC5CCOCC5)c([N+](=O)[O-])c4)c(Oc4cnc5[nH]ccc5c4)c3)CC2)=C(c2ccc(Cl)cc2)C1 [Venetoclax]; conditions: max 1 µM
Outline: as §1

Trametinib = compound: CC(=O)Nc1cccc(-n2c(=O)n(C3CC3)c(=O)c3c(Nc4ccc(I)cc4F)n(C)c(=O)c(C)c32)c1 [Trametinib]; conditions: max 1 µM
Outline: as §1

AZD7648 = compound: Cc1cc2ncnn2cc1Nc1ncc2c(n1)n(C1CCOCC1)c(=O)n2C [AZD7648]; conditions: max 10 µM
Outline: as §1

5-Fluorouracil = compound: O=c1[nH]cc(F)c(=O)[nH]1 [5-Fluorouracil]; conditions: max 20 µM
Outline: as §1

[1] = compound: O=C(Nc1ccc2[nH]nc(-c3ccncc3)c2c1)[C@@H]1CCN(CC(=O)N2CCN(c3ccc(-c4ncccn4)cc3)CC2)C1; conditions: max 5 µM
Outline: as §1

Gefitinib = compound: COc1cc2ncnc(Nc3ccc(F)c(Cl)c3)c2cc1OCCCN1CCOCC1 [Gefitinib]; conditions: max 10 µM
Outline: as §1

Etoposide = compound: COc1cc([C@@H]2c3cc4c(cc3[C@@H](O[C@@H]3O[C@@H]5CO[C@@H](C)O[C@H]5[C@H](O)[C@H]3O)[C@H]3COC(=O)[C@H]23)OCO4)cc(OC)c1O [Etoposide]; conditions: max 10 µM
Outline: as §1

MK-2206 = compound: NC1(c2ccc(-c3nc4ccn5c(=O)[nH]nc5c4cc3-c3ccccc3)cc2)CCC1 [MK-2206]; conditions: max 10 µM
Outline: as §1

Crizotinib = compound: C[C@@H](Oc1cc(-c2cnn(C3CCNCC3)c2)cnc1N)c1c(Cl)ccc(F)c1Cl [Crizotinib]; conditions: max 10 µM
Outline: as §1

AZD1775 = compound: C=CCn1c(=O)c2cnc(Nc3ccc(N4CCN(C)CC4)cc3)nc2n1-c1cccc(C(C)(C)O)n1 [AZD1775]; conditions: max 3 µM
Outline: as §1

Savolitinib = compound: C[C@@H](c1ccc2nccn2c1)n1nnc2ncc(-c3cnn(C)c3)nc21 [Savolitinib]; conditions: max 1 µM
Outline: as §1

AZD5153 = compound: COc1nnc2ccc(N3CCC(c4ccc(OCCN5CCN(C)C(=O)[C@H]5C)cc4)CC3)nn12 [AZD5153]; conditions: max 1 µM
Outline: as §1

Selumetinib = compound: Cn1cnc2c(F)c(Nc3ccc(Br)cc3Cl)c(C(=O)NOCCO)cc21 [Selumetinib]; conditions: max 10 µM
Outline: as §1

Olaparib = compound: O=C(c1cc(Cc2n[nH]c(=O)c3ccccc23)ccc1F)N1CCN(C(=O)C2CC2)CC1 [Olaparib]; conditions: max 10 µM
Outline: as §1

AZD4320 = compound: CN(CC[C@H](CSC1=CC=CC=C1)NC2=C(C=C(C=C2)S(=O)(=O)NC(=O)C3=CC=C(C=C3)N4CCC(CC4)[C@H](C5=CC=CC=C5C6=CC=C(C=C6)Cl)O)S(=O)(=O)C(F)(F)F)CCO [AZD4320]; conditions: max 1 µM
Outline: as §1

Gemcitabine = compound: Nc1ccn([C@@H]2O[C@H](CO)[C@@H](O)C2(F)F)c(=O)n1 [Gemcitabine]; conditions: max 0.3 µM
Outline: as §1

AZD6738 = compound: C[C@@H]1COCCN1C2=NC(=NC(=C2)C3(CC3)[S@](=N)(=O)C)C4=C5C=CNC5=NC=C4 [AZD6738]; conditions: max 10 µM
Outline: as §1

AZD5363 = compound: C1CN(CCC1(C(=O)N[C@@H](CCO)C2=CC=C(C=C2)Cl)N)C3=NC=NC4=C3C=CN4 [AZD5363]; conditions: max 10 µM
Outline: as §1

Doxorubicin = compound: COc1cccc2c1C(=O)c1c(O)c3c(c(O)c1C2=O)C[C@@](O)(C(=O)CO)C[C@@H]3O[C@H]1C[C@H](N)[C@H](O)[C@H](C)O1 [Doxorubicin]; conditions: max 1 µM
Outline: as §1

SRA737 = compound: N#Cc1cnc(Nc2cc(NC[C@H]3CNCCO3)c(C(F)(F)F)cn2)cn1 [SRA737]; conditions: max 10 µM
Outline: as §1

Paclitaxel = compound: CC(=O)O[C@H]1C(=O)[C@@]2(C)[C@H]([C@H](OC(=O)c3ccccc3)[C@]3(O)C[C@H](OC(=O)[C@H](O)[C@@H](NC(=O)c4ccccc4)c4ccccc4)C(C)=C1C3(C)C)[C@]1(OC(C)=O)CO[C@@H]1C[C@@H]2O [Paclitaxel]; conditions: max 3 µM
Outline: as §1

Lapatinib = compound: CS(=O)(=O)CCNCc1ccc(-c2ccc3ncnc(Nc4ccc(OCc5cccc(F)c5)c(Cl)c4)c3c2)o1 [Lapatinib]; conditions: max 10 µM
Outline: as §1

AZD2811 = compound: CCN(CCO)CCCOc1ccc2c(Nc3cc(CC(=O)Nc4cccc(F)c4)[nH]n3)ncnc2c1 [AZD2811]; conditions: max 1 µM
Outline: as §1

SN-38 = compound: CCc1c2c(nc3ccc(O)cc13)-c1cc3c(c(=O)n1C2)COC(=O)[C@]3(O)CC [SN-38]; conditions: max 0.3 µM
Outline: as §1

AZD0156 = compound: CN(C)CCCOc1ccc(-c2ccc3ncc4c(c3c2)n(C2CCOCC2)c(=O)n4C)cn1 [AZD0156]; conditions: max 3 µM
Outline: as §1

SG3199 = compound: CC1=CN2[C@@H](C1)C=NC3=CC(=C(C=C3C2=O)OC)OCCCCCOC4=C(C=C5C(=C4)N=C[C@@H]6CC(=CN6C5=O)C)OC [SG3199]; conditions: max 0.001 µM
Outline: as §1

Dasatinib = compound: CC1=C(C(=CC=C1)Cl)NC(=O)C2=CN=C(S2)NC3=CC(=NC(=N3)C)N4CCN(CC4)CCO [Dasatinib]; conditions: max 2 µM
Outline: as §1

Palbociclib = compound: CC(=O)c1c(C)c2cnc(Nc3ccc(N4CCNCC4)cn3)nc2n(C2CCCC2)c1=O [Palbociclib]; conditions: max 10 µM
Outline: as §1

Row | Cell Line | IC50, cell viability 72 h (AZD5991) [nM] | IC50, cell viability 72 h (Alisertib) [nM] | IC50, cell viability 72 h (Taselisib) [nM] | IC50, cell viability 72 h (AZD1390) [nM] | IC50, cell viability 72 h (Prexasertib) [nM] | IC50, cell viability 72 h (AZD8186) [nM] | IC50, cell viability 72 h (Carboplatin) [nM] | IC50, cell viability 72 h (Venetoclax) [nM] | IC50, cell viability 72 h (Trametinib) [nM] | IC50, cell viability 72 h (AZD7648) [nM] | IC50, cell viability 72 h (5-Fluorouracil) [nM] | IC50, cell viability 72 h [1] [nM] | IC50, cell viability 72 h (Gefitinib) [nM] | IC50, cell viability 72 h (Etoposide) [nM] | IC50, cell viability 72 h (MK-2206) [nM] | IC50, cell viability 72 h (Crizotinib) [nM] | IC50, cell viability 72 h (AZD1775) [nM] | IC50, cell viability 72 h (Savolitinib) [nM] | IC50, cell viability 72 h (AZD5153) [nM] | IC50, cell viability 72 h (Selumetinib) [nM] | IC50, cell viability 72 h (Olaparib) [nM] | IC50, cell viability 72 h (AZD4320) [nM] | IC50, cell viability 72 h (Gemcitabine) [nM] | IC50, cell viability 72 h (AZD6738) [nM] | IC50, cell viability 72 h (AZD5363) [nM] | IC50, cell viability 72 h (Doxorubicin) [nM] | IC50, cell viability 72 h (SRA737) [nM] | IC50, cell viability 72 h (Paclitaxel) [nM] | IC50, cell viability 72 h (Lapatinib) [nM] | IC50, cell viability 72 h (AZD2811) [nM] | IC50, cell viability 72 h (SN-38) [nM] | IC50, cell viability 72 h (AZD0156) [nM] | IC50, cell viability 72 h (SG3199) [nM] | IC50, cell viability 72 h (Dasatinib) [nM] | IC50, cell viability 72 h (Palbociclib) [nM]
1 | RCM-1 (Colorectal Carcinoma) | > 1000 | > 10000 | 9940 | > 300 | 23.2 | > 10000 | > 10000 | > 1000 | 31.8 | > 10000 | > 20000 | 2150 | > 10000 | > 10000 | > 10000 | > 10000 | 1790 | > 1000 | 506 | 2570 | > 10000 | > 1000 | > 300 | 2610 | > 10000 | > 1000 | > 10000 | > 3000 | > 10000 | > 1000 | 35.4 | > 3000 | > 1 | > 2000 | > 10000
2 | REH (B-Lymphoblastic Leukemia) | 723 | 1620 | 3310 | > 300 | 24.8 | 9640 | > 10000 | 211 | > 1000 | > 10000 | > 20000 | > 5000 | > 10000 | 834 | 4580 | 4210 | 727 | > 1000 | 834 | > 10000 | > 10000 | 56.4 | 15.6 | 5790 | > 10000 | 94.9 | > 10000 | 5.44 | > 10000 | 218 | 4.21 | > 3000 | > 1 | > 2000 | 6850
3 | RKN (Other Solid Carcinomas) | > 1000 | > 10000 | > 10000 | > 300 | 267 | > 10000 | > 10000 | > 1000 | > 1000 | > 10000 | > 20000 | > 5000 | > 10000 | > 10000 | > 10000 | > 10000 | 2300 | > 1000 | > 1000 | > 10000 | > 10000 | > 1000 | > 300 | > 10000 | > 10000 | > 1000 | > 10000 | 40.8 | > 10000 | > 1000 | > 300 | > 3000 | > 1 | 1740 | > 10000
4 | SF539 (Glioblastoma) | > 1000 | 4930 | 3750 | > 300 | 8.82 | > 10000 | > 10000 | > 1000 | > 1000 | > 10000 | 14500 | 3220 | > 10000 | 2140 | 9370 | 9820 | 185 | > 1000 | 370 | > 10000 | > 10000 | > 1000 | 23.9 | 2050 | 3270 | 351 | 1930 | 7.53 | > 10000 | > 1000 | 18.9 | > 3000 | > 1 | 1630 | > 10000
5 | SHP-77 (Small Cell Lung Carcinoma) | > 1000 | > 10000 | > 10000 | > 300 | 102 | > 10000 | > 10000 | > 1000 | > 1000 | > 10000 | 14800 | > 5000 | > 10000 | > 10000 | > 10000 | > 10000 | 1800 | > 1000 | > 1000 | > 10000 | > 10000 | > 1000 | 169 | > 10000 | > 10000 | > 1000 | > 10000 | 76.3 | > 10000 | > 1000 | > 300 | > 3000 | > 1 | > 2000 | > 10000
